Source: paper PMC10469817, “A novel UHPLC‒MS/MS method for quantitative analysis of zanubrutinib in rat plasma: application to an in vivo interaction study between zanubrutinib and triazole antifungal” (BMC Chemistry, 2023)
Read-outs that look alike come from different tables or passages of the source.

Legend:
CYP3A4 [1] = system: CYP3A4; set-up: method as in PMID 16205037, PMID 30477963; details: cited from earlier work
[2] = DDI study: pharmacokinetics of zanubrutinib in rats alone or with fluconazole / isavuconazole; type: in vivo, Sprague–Dawley (SD) rats; details: for AUC(0-inf) / AUC(0-t) / Cmax / Tmax / half-life / CL/F / MRT last / MRT inf / Vd/F: rat, plasma, po, zanubrutinib 30 mg/kg gavage, n = 6, mean ± SD; for CL/F: read-out: CLz/F (converted); for MRT last: read-out: MRT(0−t); for MRT inf: read-out: MRT(0−∞); for Vd/F: read-out: Vz/F; for time to peak: in h (unit assumed); for peak plasma concentration: in ng/mL; for area under the curve: in µg·h/L
Description: The separation procedures were processed using a Shim-pack velox C18 column (2.1 × 50 mm, 2.7 μm) at 40 degrees Celsius. The mobile phases were 0.1% formic acid-water and methanol. The gradient elution mode (each injection = 3 min) was applied as follows: the first 0-0.5 min was maintained at 10% methanol, followed by linearly increasing to 80% methanol (0.5–0.8 min) and keeping 80% methanol for 0.8–1.5 min. […] At the stage of the analysis process, the sample injection volume and flow rate were set as 2 µL and 0.4 mL/min, respectively.
Triple quadrupole mass spectrometry (Shimadzu Corp., Tokyo, Japan) was utilized for sample detection. The parameters for this procedure were set as follows: the detector voltage, heating block temperature, flow of atomizing gas, and drying gas were set as 4.5 kV, 400 °C, 3 L/min and 5 L/min, respectively. Multiple reaction monitoring (MRM) mode was performed to detect the precursor and product ions of the IS and analyte. The first and second signal strength product ions were applied to quantitation and qualification, respectively, to ensure the specificity of the detection. In addition, the retention times of the IS and analyte were also considered to further improve the detection specificity.
Eighteen SD rats were randomly split into three groups (Groups A-C). […] The same dose (0.5% CMC-Na) was administered to Group A (control group). After half an hour, each rat was treated with 30 mg/kg zanubrutinib. Thereafter, rat blood samples (0.3 mL) from the caudal vein at a series of time points (0.083, 0.5, 1, 2, 3, 4, 5, 6, 8, and 12 h) were collected in heparin tubes. The blood samples were centrifuged at 13,000 × g for 10 min at 4 °C, followed by separation of plasma and storage at -80 °C.
Prior to the experiment, the − 80 °C stored rat plasma samples were placed at room temperature for thawing. At the protein precipitation stage, 40 µL IS, 200 µL acetonitrile, and 100 µL plasma were collectively added to a 1.5 mL centrifuge tube, vortexed to mix thoroughly, and centrifuged at 12,000 × g for 10 min. Afterwards, 100 µL supernatant was transferred to a centrifuge tube and gently mixed with 100 µL ultrapure water for UHPLC–MS/MS analysis.

CYP3A4 [3] = system: CYP3A4; set-up: method as in PMID 34252374; details: in vitro experiments; to phenoxy phenyl hydroxylation metabolites; cited from earlier work
[4] = set-up: method as in PMID 31875923; details: healthy volunteers, combined with itraconazole (CYP3A4 inhibitor); cited from earlier work
[5] = system: IL-2-induced kinase (ITK); set-up: method as in PMID 31171645; details: compared to ibrutinib; cited from earlier work
[6] = Stability of zanubrutinib in rat plasma under different storage conditions; type: in vitro ADME; details: for Stability in rat plasma, RE(%): n = 6
Description: Under a series of storage conditions, each concentration of rat plasma QC samples (2, 40 and 800 ng/mL) was evaluated in 6 replicates to explore the stability of the method. This experiment determines the stabilities of the QC samples during analyses and different storage conditions. […] The testing results with RSD% (< 15%) and RE% (± 15%) were considered stable.

BTK = system: BTK; set-up: method as in PMID 31340982; details: peripheral blood mononuclear cells (PBMCs) and peripheral lymph nodes in patients with B-cell lymphoma; cited from earlier work
[7] = set-up: method as in PMID 31340982; details: cited from earlier work
[8] = Sprague-Dawley, 30 mg/kg, rats, Group A: the control group (0.5% CMC-Na)
[9] = Sprague-Dawley, 30 mg/kg, rats, Group B: 20 mg/kg isavuconazole
[10] = Sprague-Dawley, 30 mg/kg, rats, Group C: 20 mg/kg fluconazole
[11] = rats, zanubrutinib (30 mg/kg) alone
[12] = rats, zanubrutinib (30 mg/kg) coadministered with fluconazole (20 mg/kg)
[13] = rats, zanubrutinib (30 mg/kg) coadministered with isavuconazole (20 mg/kg)
[14] = single administration of 320 mg

OC(Cn1cncn1)(Cn1cncn1)c1ccc(F)cc1F [fluconazole]
CYP3A4 inhibition (CYP3A4 [1]): CYP3A4 enzyme inhibitors

C[C@@H](c1nc(-c2ccc(C#N)cc2)cs1)[C@](O)(Cn1cncn1)c1cc(F)ccc1F [isavuconazole]
CYP3A4 inhibition (CYP3A4 [1]): CYP3A4 enzyme inhibitors
inhibitory effect on the metabolism of zanubrutinib ([2]; rats, 20 mg/kg antifungal by gavage half an hour before 30 mg/kg zanubrutinib): obvious inhibitory effect

C=CC(=O)N1CCC([C@@H]2CCNc3c(C(N)=O)c(-c4ccc(Oc5ccccc5)cc4)nn32)CC1 [zanubrutinib]
enzyme primarily metabolizing zanubrutinib (CYP3A4 [3]): CYP3A4
AUC increased to (combined with itraconazole) [4]: 143%
Cmax increased to (combined with itraconazole) [4]: 154%
times lower at inhibiting IL-2-induced kinase (ITK) than ibrutinib [5]: more than 20 times
Stability in rat plasma, RE(%) ([6]; 4 °C (24 h), 2 ng/mL): 1.3%
Stability in rat plasma, RE(%) ([6]; 4 °C (24 h), 40 ng/mL): 1.4%
Stability in rat plasma, RE(%) ([6]; 4 °C (24 h), 800 ng/mL): 1.0%
Stability in rat plasma, RE(%) ([6]; -80 °C (long-term), 2 ng/mL): 2.5%
Stability in rat plasma, RE(%) ([6]; -80 °C (long-term), 40 ng/mL): 1.5%
Stability in rat plasma, RE(%) ([6]; -80 °C (long-term), 800 ng/mL): 4.0%
Stability in rat plasma, RE(%) ([6]; Room temperature (4 h), 2 ng/mL): -0.2%
Stability in rat plasma, RE(%) ([6]; Room temperature (4 h), 40 ng/mL): -1.4%
Stability in rat plasma, RE(%) ([6]; Room temperature (4 h), 800 ng/mL): -2.3%
Stability in rat plasma, RE(%) ([6]; Three freeze‒thaw, 2 ng/mL): -1.8%
Stability in rat plasma, RE(%) ([6]; Three freeze‒thaw, 40 ng/mL): 2.6%
Stability in rat plasma, RE(%) ([6]; Three freeze‒thaw, 800 ng/mL): -0.4%
stability in plasma under the assessed storage conditions ([6]; room temperature, 4 degrees Celsius refrigeration, freeze thawing, cryopreservation for long-term): stable
efficacy of BTK inhibition (BTK): ~100%
concentration at 1 h ([2]; Sprague-Dawley, 30 mg/kg, a rat plasma sample obtained 1 h after oral administration of zanubrutinib): 230 ng/mL
AUC(0-inf) [2, 8]: 1090 ± 44.2 ng·h/mL
AUC(0-t) [2, 8]: 1080 ± 43.8 ng·h/mL
Cmax [2, 8]: 332 ± 52.8 ng/mL
Tmax [2, 8]: 1.83 ± 0.41 h
half-life [2, 8]: 1.34 ± 0.11 h
CL/F [2, 8]: 461 mL/min/kg
MRT last [2, 8]: 2.71 ± 0.1 h
MRT inf [2, 8]: 2.76 ± 0.09 h
Vd/F [2, 8]: 53.2 ± 3.64 L/kg
AUC(0-inf) [2, 9]: 1270 ± 78 ng·h/mL
AUC(0-t) [2, 9]: 1270 ng·h/mL
Cmax [2, 9]: 396 ± 37.2 ng/mL
Tmax [2, 9]: 2 h
half-life [2, 9]: 1.42 ± 0.56 h
CL/F [2, 9]: 394 mL/min/kg
MRT last [2, 9]: 2.76 ± 0.07 h
MRT inf [2, 9]: 2.82 ± 0.09 h
Vd/F [2, 9]: 49 ± 21.1 L/kg
AUC(0-inf) [2, 10]: 1730 ± 218 ng·h/mL
AUC(0-t) [2, 10]: 1720 ± 219 ng·h/mL
Cmax [2, 10]: 495 ± 131 ng/mL
Tmax [2, 10]: 2.17 ± 0.41 h
half-life [2, 10]: 1.37 ± 0.16 h
CL/F [2, 10]: 293 mL/min/kg
MRT last [2, 10]: 2.95 ± 0.14 h
MRT inf [2, 10]: 3 ± 0.14 h
Vd/F [2, 10]: 34.8 ± 6.57 L/kg
time to peak [2, 11]: 1.83 ± 0.41
peak plasma concentration [2, 11]: 332.00 ± 52.79
area under the curve [2, 11]: 1081.67 ± 43.81
time to peak [2, 12]: 2.17 ± 0.41
peak plasma concentration [2, 12]: 494.51 ± 130.68
area under the curve [2, 12]: 1721.61 ± 219.36
time to peak [2, 13]: 2.00 ± 0.00
peak plasma concentration [2, 13]: 396.05 ± 37.19
area under the curve [2, 13]: 1267.55 ± 79.35
time of peak concentration (Tmax) ([7]; patients with malignant lymphoma, oral administration): approximately 2 h
mean half-life (t1/2) [7, 14]: approximately 4 h
mean peak concentration (Cmax) [7, 14]: 658 ng/mL
